From BindingDB's records for doi:10.1021/jm051296s (University of Southern California, 2006)

Target: Integrin alpha-V/beta-3 (Homo sapiens, UniProt P05106+P06756)
Test: Inhibition of [125I]echistatin binding to integrin alphaVbeta3 receptor

Sequence of Integrin alpha-V/beta-3 (P05106 27-788 limits assumed): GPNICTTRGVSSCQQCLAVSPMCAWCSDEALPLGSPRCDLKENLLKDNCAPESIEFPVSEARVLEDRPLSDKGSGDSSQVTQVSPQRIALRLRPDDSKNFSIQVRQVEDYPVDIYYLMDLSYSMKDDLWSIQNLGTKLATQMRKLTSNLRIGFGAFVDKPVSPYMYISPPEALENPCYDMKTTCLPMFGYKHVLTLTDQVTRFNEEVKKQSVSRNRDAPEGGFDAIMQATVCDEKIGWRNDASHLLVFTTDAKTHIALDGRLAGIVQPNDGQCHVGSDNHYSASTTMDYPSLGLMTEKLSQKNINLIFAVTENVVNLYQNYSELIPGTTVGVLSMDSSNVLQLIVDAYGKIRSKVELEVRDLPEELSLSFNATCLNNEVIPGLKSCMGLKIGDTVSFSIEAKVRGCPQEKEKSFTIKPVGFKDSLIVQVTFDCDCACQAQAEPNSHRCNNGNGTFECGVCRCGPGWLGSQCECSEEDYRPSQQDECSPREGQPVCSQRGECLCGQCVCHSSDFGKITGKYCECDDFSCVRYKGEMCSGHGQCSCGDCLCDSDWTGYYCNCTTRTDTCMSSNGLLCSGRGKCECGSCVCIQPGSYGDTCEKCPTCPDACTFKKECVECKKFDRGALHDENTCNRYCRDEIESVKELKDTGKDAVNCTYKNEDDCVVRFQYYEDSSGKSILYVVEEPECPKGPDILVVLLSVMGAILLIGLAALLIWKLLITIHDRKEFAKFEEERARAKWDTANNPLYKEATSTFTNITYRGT
Sequence of Integrin alpha-V/beta-3 (P06756 31-889 limits assumed): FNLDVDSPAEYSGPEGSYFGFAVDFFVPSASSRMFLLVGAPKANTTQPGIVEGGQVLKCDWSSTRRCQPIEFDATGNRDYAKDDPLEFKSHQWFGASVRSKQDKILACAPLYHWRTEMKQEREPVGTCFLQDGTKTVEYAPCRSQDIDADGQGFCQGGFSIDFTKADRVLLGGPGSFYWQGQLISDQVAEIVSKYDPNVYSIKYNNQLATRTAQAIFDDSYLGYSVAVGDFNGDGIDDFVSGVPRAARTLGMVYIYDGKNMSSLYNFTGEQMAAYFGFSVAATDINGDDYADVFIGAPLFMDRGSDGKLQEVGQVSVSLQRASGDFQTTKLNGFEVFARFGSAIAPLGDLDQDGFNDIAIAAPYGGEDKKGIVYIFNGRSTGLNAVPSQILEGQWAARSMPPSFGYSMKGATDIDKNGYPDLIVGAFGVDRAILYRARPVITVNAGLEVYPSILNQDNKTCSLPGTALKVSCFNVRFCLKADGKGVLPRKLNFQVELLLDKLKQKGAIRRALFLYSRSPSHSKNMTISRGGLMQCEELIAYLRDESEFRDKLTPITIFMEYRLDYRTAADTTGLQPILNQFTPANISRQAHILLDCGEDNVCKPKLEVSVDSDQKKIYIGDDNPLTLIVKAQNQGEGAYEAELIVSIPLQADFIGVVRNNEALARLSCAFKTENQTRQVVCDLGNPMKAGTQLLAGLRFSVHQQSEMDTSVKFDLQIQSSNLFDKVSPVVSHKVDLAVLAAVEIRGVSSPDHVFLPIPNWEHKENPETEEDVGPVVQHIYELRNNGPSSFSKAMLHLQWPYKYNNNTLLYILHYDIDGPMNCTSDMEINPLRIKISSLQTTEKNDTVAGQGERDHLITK
Sequence of Integrin alpha-V/beta-3 (P06756 891-1048 limits assumed): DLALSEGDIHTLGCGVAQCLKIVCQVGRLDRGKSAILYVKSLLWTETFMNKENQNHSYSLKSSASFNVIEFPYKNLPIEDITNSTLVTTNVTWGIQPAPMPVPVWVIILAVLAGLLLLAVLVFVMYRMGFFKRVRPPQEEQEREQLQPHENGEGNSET

IC50: > 1000 nM
Compound: O=C(O)c1cccc(-c2ccc(CN=Nc3nc4nonc4nc3Nc3ccc(F)cc3)o2)c1 [3-(5-{[6-(4-fluoro-phenylamino)-[1,2,5]oxadiazolo[3,4-b]pyrazin-5-yl]-hydrazonomethyl}-furan-2-yl)-benzoic acid]
